Measurements from ChEMBL document CHEMBL1201862, “PubChem BioAssay data set” (2004).
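48-hour exposure; five concentrations; linearly interpolated endpoints. GI50 is the concentration that inhibits growth by half.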 Calls of active or inactive are those of the source. Rule as the data show it: active = GI50 up to about 1.1 µM and inactive = higher.

How the values were obtained:
Experiment in all cases: DTP human tumour cell line panel, 48 h
786-0 = system: 786-0
A498 = system: A498
A549 = system: A549
CCRF-CEM = system: CCRF-CEM
HOP-92 = system: HOP-92
HT-29 = system: HT-29
IGROV-1 = system: IGROV-1
K562 = system: K562
M14 = system: M14
MDA-MB-435 = system: MDA-MB-435
MDA-N = system: MDA-N
NCI-H23 = system: NCI-H23
NCI-H522 = system: NCI-H522
SNB-19 = system: SNB-19
SNB-75 = system: SNB-75
SW-620 = system: SW-620
T47D = system: T47D
UACC-257 = system: UACC-257
UACC-62 = system: UACC-62
NCI-H226 = system: NCI-H226

Measured: GI50

C=C(C)C(=O)CC[C@@H](C)[C@H]1[C@@H](OC2OC(CO)C(O)C(O)C2O)C[C@@]2(C)[C@@H]3C[C@H](O)C4C(C)(C)[C@@H](OC5OC(CO)C(O)C(O)C5O)CC[C@@]45C[C@@]35CC[C@]12C (stereo partly drawn)
inactive: 786-0 > 100 µM | A498 > 100 µM | A549 > 100 µM | CCRF-CEM 64.9 µM | HOP-92 > 100 µM | HT-29 > 100 µM | IGROV-1 > 100 µM | K562 90.6 µM | M14 > 100 µM | MDA-MB-435 68.9 µM | MDA-N 24.6 µM | NCI-H23 87.3 µM | NCI-H522 80.4 µM | SNB-19 48.8 µM | SNB-75 > 100 µM | SW-620 > 100 µM | T47D > 100 µM | UACC-257 > 100 µM | UACC-62 > 100 µM

Fc1ccc2nc3n(c2c1)C(c1c(Cl)cccc1Cl)SC3 (stereo not drawn)
inactive: 786-0 > 100 µM | A498 > 100 µM | A549 > 100 µM | HOP-92 50.4 µM | HT-29 > 100 µM | IGROV-1 > 100 µM | M14 > 100 µM | MDA-MB-435 > 100 µM | MDA-N 7.89 µM | NCI-H226 > 100 µM | NCI-H23 > 100 µM | NCI-H522 29.4 µM | SNB-19 > 100 µM | SNB-75 63.4 µM | SW-620 > 100 µM | T47D > 100 µM | UACC-257 > 100 µM | UACC-62 > 100 µM

Cc1ccc([S+]([O-])c2cccs2)cc1 (stereo not drawn)
inactive: 786-0 > 100 µM | A498 38.1 µM | A549 > 100 µM | CCRF-CEM > 100 µM | HOP-92 > 100 µM | HT-29 > 100 µM | K562 > 100 µM | M14 > 100 µM | MDA-MB-435 > 100 µM | MDA-N > 100 µM | NCI-H226 > 100 µM | NCI-H23 > 100 µM | SNB-19 > 100 µM | SW-620 > 100 µM | T47D > 100 µM | UACC-257 > 100 µM

Cc1ccc(C(=O)N/N=C(\N=N\c2ccc([N+](=O)[O-])cc2)c2ccc(N(CCC#N)CCC#N)cc2C)cc1
inactive: 786-0 73.5 µM | A498 64.9 µM | A549 70.1 µM | CCRF-CEM 39.8 µM | HOP-92 > 100 µM | HT-29 34.3 µM | IGROV-1 66.8 µM | K562 66.2 µM | M14 58.3 µM | MDA-MB-435 67.8 µM | MDA-N 78.9 µM | NCI-H226 31.3 µM | NCI-H23 > 100 µM | SNB-19 > 100 µM | SNB-75 43.7 µM | SW-620 > 100 µM | T47D 26.6 µM | UACC-257 77.6 µM

CCOC(=O)c1ccc(Nc2cnc3cc(C(F)(F)F)ccc3n2)cc1
inactive: 786-0 40.3 µM | A498 > 100 µM | A549 > 100 µM | CCRF-CEM > 100 µM | HOP-92 > 100 µM | HT-29 > 100 µM | IGROV-1 > 100 µM | K562 > 100 µM | MDA-MB-435 > 100 µM | MDA-N > 100 µM | NCI-H226 > 100 µM | NCI-H23 > 100 µM | NCI-H522 > 100 µM | SNB-75 44.9 µM | SW-620 > 100 µM | T47D > 100 µM | UACC-257 > 100 µM | UACC-62 > 100 µM

BrC1=CN2C[n+]3cc(Br)c4ccccc4c3N=C2c2ccccc21
inactive: A498 24.9 µM | A549 46.3 µM | CCRF-CEM 10.7 µM | HOP-92 10.5 µM | HT-29 11.8 µM | IGROV-1 7.05 µM | K562 6.34 µM | M14 5.92 µM | MDA-MB-435 6.18 µM | MDA-N 6.81 µM | NCI-H23 21.1 µM | NCI-H522 12.3 µM | SNB-19 6.67 µM | SNB-75 2.92 µM | SW-620 12.3 µM | T47D 4.14 µM | UACC-257 22 µM | UACC-62 5.58 µM

O=C(OCc1ccccc1)N1CCN(C(=O)OCc2ccccc2)CCN(C(=O)OCc2ccccc2)CCN(C(=O)OCc2ccccc2)CCN(C(=O)OCc2ccccc2)CC1
inactive: 786-0 16.8 µM | A498 > 100 µM | A549 > 100 µM | HOP-92 70.5 µM | M14 35.3 µM | MDA-MB-435 > 100 µM | MDA-N > 100 µM | NCI-H226 > 100 µM | NCI-H522 68.2 µM | SNB-19 > 100 µM | SNB-75 30.9 µM | SW-620 > 100 µM | T47D > 100 µM | UACC-257 26.7 µM | UACC-62 > 100 µM

Cc1ccc(S(=O)(=O)N(CC(O)COc2ccccc2)c2c(F)c(F)cc(F)c2F)cc1 (stereo not drawn)
inactive: 786-0 22.3 µM | A498 20.3 µM | A549 21.9 µM | CCRF-CEM 33.4 µM | HOP-92 11.7 µM | HT-29 16.8 µM | M14 23.7 µM | MDA-MB-435 16.9 µM | MDA-N 17.2 µM | NCI-H226 23.1 µM | NCI-H23 18.8 µM | SNB-19 27.6 µM | SNB-75 20.5 µM | SW-620 30.3 µM | T47D 19.7 µM | UACC-62 16.6 µM
